# Source: patent publication US7737143B2, “Substituted pyrazines as kinase inhibitors” (YM Biosciences Australia Pty Ltd, priority 2003, dated 2010)
# Molecular target: T1, human JAK3 (Homo sapiens, UniProt P52333)
# T1 construct: The kinase domain of human JAK3 was amplified from U937mRNA; His tag (pFastBac HTb vector; nickel chelate purification) (N); made in house; host or cells: baculovirus; Sf9 for virus, High Five insect cells for production
# Assay: JAK kinase assay (ELISA or Alphascreen), Jak3
# Assay type: biochemical
# Settings: standard conditions, read-out: Jak3 inhibition of enzyme activity
# Description: The kinase domain of human JAK3 was amplified from U937mRNA using the polymerase chain reaction with the following primers: […]
# JAK3 PCR products were cloned into the pFastBac HTb expression vector (Gibco) via the Xho I and Kpn I sites. The JAK3 plasmid was then transformed into competent DH10Bac cells (Gibco), and the recombinant baculovirus produced prepared for transfection into Sf9 insect cells.
# (§1) Baculovirus preparations from each of the JAK family members were infected into five litres of High Five cells (Invitrogen) grown in High Five serum free medium (Invitrogen) to a cell density of approximately 1-2×10^6 cells/ml. Cells are infected with virus at a MOI of 0.8-3.0. Cells were harvested and lysed. JAK kinase domains were purified by affinity chromatography on a Probond (Invitrogen) nickel chelate affinity column.
# (§2) Kinase assays were performed either in a 96 well capture-based ELISA assay or in 384 well Optiplates (Packard) using an Alphascreen Protein Tyrosine Kinase kit. In either case using approximately 15 μg of affinity purified PTK domain in the presence of 50 mM HEPES, pH 7.5, 10 mM MgCl2 150 mM NaCl and 10 μM-1 mM ATP. The biotinylated substrate biotin-EGPWLEEEEEAYGWMDF-NH2 (final concentration 5 μM) was used as substrate. In the ELISA assay tyrosine phosphorylation was quantitated following transfer to an avidin coated ELISA plate using peroxidase-linked anti-phospho-tyrosine antibody PY20. In the Alphascreen assay, Alphascreen phosphotyrosine acceptor beads followed by streptavidin donor beads were added under subdued light. The ELISA plates were read on a BMG Fluorostar, the Alphascreen plates were read on a Packard Fusion Alpha. Inhibitors were added to the assays fifteen minutes prior to the addition of ATP. Inhibitors were added in aqueous DMSO, with DMSO concentrations never exceeding 1%.
# T1 sequence (P52333 822-1111 limits assumed): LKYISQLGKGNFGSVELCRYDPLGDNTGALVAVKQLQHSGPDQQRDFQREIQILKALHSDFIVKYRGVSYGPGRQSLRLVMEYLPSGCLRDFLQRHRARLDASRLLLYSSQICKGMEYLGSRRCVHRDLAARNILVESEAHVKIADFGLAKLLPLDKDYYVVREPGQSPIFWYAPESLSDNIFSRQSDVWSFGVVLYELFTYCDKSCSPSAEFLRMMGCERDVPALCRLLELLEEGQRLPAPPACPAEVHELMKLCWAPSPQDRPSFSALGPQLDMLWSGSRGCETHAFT
row,inhibition at 20 µM [%],Compound
1,< 50,CC(Nc1cncc(-n2cnc3ccccc32)n1)c1cccc(Cl)c1 (stereo not drawn)
2,< 50,CC(Nc1cncc(-n2cnc3ccccc32)n1)c1ccc(-n2ccnc2)cc1 (stereo not drawn)
3,< 50,C[C@H](Nc1cncc(-n2cnc3ccc(CN4CCC(O)CC4)cc32)n1)c1ccc(F)cc1
4,< 50,C[C@H](Nc1cncc(-n2cnc3ccc(CN4CCN(CCN)CC4)cc32)n1)c1ccc(F)cc1
5,< 50,CC(Nc1cncc(-n2cnc3ccc(C#N)cc32)n1)c1cccc2ccccc12 (stereo not drawn)
6,< 50,C[C@H](Nc1cncc(-n2cnc3ccc(-c4nn[nH]n4)cc32)n1)c1ccc(F)cc1
7,≥ 50,C[C@H](Nc1cncc(-n2cnc3cc(C#N)ccc32)n1)c1ccccc1
8,≥ 50,C[C@H](Nc1cncc(-n2cnc3ccc(C#N)cc32)n1)c1ccccc1
9,< 50,C[C@H](Nc1cncc(-n2ncc3ccccc32)n1)c1ccc(F)cc1
10,< 50,C[C@H](Nc1cncc(-n2cc3ccccc3n2)n1)c1ccc(F)cc1
11,≥ 50,CC(Nc1cncc(-n2cnc3ccc(C#N)cc32)n1)c1ccc(F)c(F)c1 (stereo not drawn)
12,≥ 50,CC(Nc1cncc(-n2cnc3cc(C#N)ccc32)n1)c1ccc(F)c(F)c1 (stereo not drawn)
13,≥ 50,CC(Nc1cncc(-n2cnc3cc(C#N)ccc32)n1)c1cccc(F)c1 (stereo not drawn)
14,< 50,N#Cc1ccc2ncn(-c3cncc(N[C@H]4CCCc5ccccc54)n3)c2c1
15,< 50,CC(Nc1cncc(-n2cnc3cc(C#N)ccc32)n1)c1cc(F)cc(F)c1 (stereo not drawn)
16,< 50,CC(Nc1cncc(-n2cnc3ccc(C#N)cc32)n1)c1cccc(C(F)(F)F)c1 (stereo not drawn)
17,< 50,CC(Nc1cncc(-n2cnc3cc(C#N)ccc32)n1)c1cccc(C(F)(F)F)c1 (stereo not drawn)
18,≥ 50,CC(Nc1cncc(-n2cnc3ccc(C#N)cc32)n1)c1ccc(F)c(Cl)c1 (stereo not drawn)
19,< 50,CC(Nc1cncc(-n2cnc3ccc(C#N)cc32)n1)c1cccc(OC(F)(F)F)c1 (stereo not drawn)
20,< 50,CC(Nc1cncc(-n2cnc3cc(C#N)ccc32)n1)c1cccc(OC(F)(F)F)c1 (stereo not drawn)
21,< 50,N#Cc1ccc2ncn(-c3cncc(NC4Cc5ccccc5C4)n3)c2c1
22,< 50,N#Cc1ccc2c(c1)ncn2-c1cncc(NC2Cc3ccccc3C2)n1
23,< 50,N#Cc1ccc2ncn(-c3cncc(N4CCc5ccccc5C4)n3)c2c1
24,< 50,N#Cc1ccc2c(c1)ncn2-c1cncc(N2CCc3ccccc3C2)n1
25,≥ 50,CC[C@H](Nc1cncc(-n2cnc3ccc(C#N)cc32)n1)c1ccccc1
26,< 50,C[C@H](Nc1cncc(-n2cnc3cccnc32)n1)c1ccccc1
27,< 50,C[C@H](Nc1cncc(-n2cnc3ncccc32)n1)c1ccccc1
28,< 50,C[C@H](Nc1cncc(-n2cnc3cccnc32)n1)c1ccc(F)cc1
29,< 50,C[C@H](Nc1cncc(-n2cnc3ncccc32)n1)c1ccc(F)cc1
30,< 50,Cc1ccc([C@H](C)Nc2cncc(-n3cnc4cc(C#N)ccc43)n2)cc1

# Molecular target: T2, human JAK2 (Homo sapiens, UniProt O60674)
# T2 construct: The kinase domain of human JAK2 was amplified from U937mRNA; His tag (pFastBac HTc vector; nickel chelate purification) (N); made in house; host or cells: baculovirus; Sf9 for virus, High Five insect cells for production
# T2 sequence (O60674 849-1124 limits assumed): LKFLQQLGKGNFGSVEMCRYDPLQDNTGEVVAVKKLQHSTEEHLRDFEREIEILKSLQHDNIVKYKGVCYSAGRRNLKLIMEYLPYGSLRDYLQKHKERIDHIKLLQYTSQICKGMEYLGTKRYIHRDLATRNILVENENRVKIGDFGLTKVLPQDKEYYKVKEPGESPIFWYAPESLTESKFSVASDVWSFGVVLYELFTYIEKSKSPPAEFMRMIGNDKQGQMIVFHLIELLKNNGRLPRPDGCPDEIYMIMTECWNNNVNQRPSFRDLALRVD
# Assay: JAK kinase assay (ELISA or Alphascreen), Jak2
# Assay type: biochemical
# Settings: standard conditions, read-out: Jak2 inhibition of enzyme activity
# Description: The kinase domain of human JAK2 was amplified from U937mRNA using the polymerase chain reaction with the following primers: […]
# JAK2 PCR products were cloned into the pFastBac HTc expression vector (Gibco) via the Sal I and Not I sites. The JAK2 plasmid was then transformed into competent DHL10Bac cells (Gibco), and the recombinant baculovirus produced prepared for transfection into Sf9 insect cells.
# as §1, §2
row,inhibition at 20 µM [%],Compound
1,< 50,CC(Nc1cncc(-n2cnc3ccccc32)n1)c1cccc(Cl)c1 (stereo not drawn)
2,< 50,CC(Nc1cncc(-n2cnc3ccccc32)n1)c1ccc(-n2ccnc2)cc1 (stereo not drawn)
3,≥ 50,C[C@H](Nc1cncc(-n2cnc3ccc(CN4CCC(O)CC4)cc32)n1)c1ccc(F)cc1
4,< 50,C[C@H](Nc1cncc(-n2cnc3ccc(CN4CCN(CCN)CC4)cc32)n1)c1ccc(F)cc1
5,< 50,CC(Nc1cncc(-n2cnc3ccc(C#N)cc32)n1)c1cccc2ccccc12 (stereo not drawn)
6,≥ 50,C[C@H](Nc1cncc(-n2cnc3ccc(-c4nn[nH]n4)cc32)n1)c1ccc(F)cc1
7,≥ 50,C[C@H](Nc1cncc(-n2cnc3cc(C#N)ccc32)n1)c1ccccc1
8,≥ 50,C[C@H](Nc1cncc(-n2cnc3ccc(C#N)cc32)n1)c1ccccc1
9,< 50,C[C@H](Nc1cncc(-n2ncc3ccccc32)n1)c1ccc(F)cc1
10,< 50,C[C@H](Nc1cncc(-n2cc3ccccc3n2)n1)c1ccc(F)cc1
11,≥ 50,CC(Nc1cncc(-n2cnc3ccc(C#N)cc32)n1)c1ccc(F)c(F)c1 (stereo not drawn)
12,≥ 50,CC(Nc1cncc(-n2cnc3cc(C#N)ccc32)n1)c1ccc(F)c(F)c1 (stereo not drawn)
13,≥ 50,CC(Nc1cncc(-n2cnc3cc(C#N)ccc32)n1)c1cccc(F)c1 (stereo not drawn)
14,< 50,N#Cc1ccc2ncn(-c3cncc(N[C@H]4CCCc5ccccc54)n3)c2c1
15,≥ 50,CC(Nc1cncc(-n2cnc3cc(C#N)ccc32)n1)c1cc(F)cc(F)c1 (stereo not drawn)
16,≥ 50,CC(Nc1cncc(-n2cnc3ccc(C#N)cc32)n1)c1cccc(C(F)(F)F)c1 (stereo not drawn)
17,< 50,CC(Nc1cncc(-n2cnc3cc(C#N)ccc32)n1)c1cccc(C(F)(F)F)c1 (stereo not drawn)
18,≥ 50,CC(Nc1cncc(-n2cnc3ccc(C#N)cc32)n1)c1ccc(F)c(Cl)c1 (stereo not drawn)
19,< 50,CC(Nc1cncc(-n2cnc3ccc(C#N)cc32)n1)c1cccc(OC(F)(F)F)c1 (stereo not drawn)
20,< 50,CC(Nc1cncc(-n2cnc3cc(C#N)ccc32)n1)c1cccc(OC(F)(F)F)c1 (stereo not drawn)
21,< 50,N#Cc1ccc2ncn(-c3cncc(NC4Cc5ccccc5C4)n3)c2c1
22,< 50,N#Cc1ccc2c(c1)ncn2-c1cncc(NC2Cc3ccccc3C2)n1
23,< 50,N#Cc1ccc2ncn(-c3cncc(N4CCc5ccccc5C4)n3)c2c1
24,< 50,N#Cc1ccc2c(c1)ncn2-c1cncc(N2CCc3ccccc3C2)n1
25,≥ 50,CC[C@H](Nc1cncc(-n2cnc3ccc(C#N)cc32)n1)c1ccccc1
26,< 50,C[C@H](Nc1cncc(-n2cnc3cccnc32)n1)c1ccccc1
27,< 50,C[C@H](Nc1cncc(-n2cnc3ncccc32)n1)c1ccccc1
28,< 50,C[C@H](Nc1cncc(-n2cnc3cccnc32)n1)c1ccc(F)cc1
29,< 50,C[C@H](Nc1cncc(-n2cnc3ncccc32)n1)c1ccc(F)cc1
30,≥ 50,Cc1ccc([C@H](C)Nc2cncc(-n3cnc4cc(C#N)ccc43)n2)cc1
